The text below walks through data of patent US12679878B2, “CRF2 receptor agonists and their use in therapy” (SANOFI, priority 2020, dated 2026).

Assay type in all cases: cell-based
One assay has as its target T1, human CRF2α receptor (Homo sapiens, UniProt Q13324).
T1 construct: expressed in transfected cells; host or cells: TeloHEAC
T1 sequence (Q13324 1-411): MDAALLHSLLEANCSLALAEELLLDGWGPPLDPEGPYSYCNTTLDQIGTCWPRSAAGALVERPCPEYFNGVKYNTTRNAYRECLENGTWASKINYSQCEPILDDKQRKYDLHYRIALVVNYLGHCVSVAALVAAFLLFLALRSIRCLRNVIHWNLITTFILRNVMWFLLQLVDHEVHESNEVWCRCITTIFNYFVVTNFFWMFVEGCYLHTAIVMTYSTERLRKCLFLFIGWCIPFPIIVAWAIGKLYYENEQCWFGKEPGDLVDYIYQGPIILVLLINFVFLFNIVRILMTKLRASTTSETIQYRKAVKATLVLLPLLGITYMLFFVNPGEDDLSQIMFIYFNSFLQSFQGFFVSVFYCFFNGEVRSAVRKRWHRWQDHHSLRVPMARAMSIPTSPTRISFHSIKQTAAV
Description: cAMP agonism at human CRF2 α receptor in TeloHEAC cells (Example 7). The following applies: cAMP HTRF, TeloHEAC cells stably expressing human CRF2 α, 0% HSA; read-out: EC50 [nM], 0% HSA. The gist of the method: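 Cryopreserved cells are thawed, washed and resuspended in IBMX-containing (2 mM) HEPES-buffered HBSS with or without 0.1% HSA. Compound incubation runs 30 min at room temperature with 2000 cells per well, then cAMP is measured by time-resolved FRET. Potency is expressed as EC50, efficacy relative to urocortin 2 at 1000 nM.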

For another assay, the system named is rat CRF2R α receptor. Kind of assay: cAMP agonism at rat CRF2R α receptor in A7R5 rat aortic smooth muscle cells (Example 8). The conditions noted are these: cAMP HTRF, A7R5 rat aortic smooth muscle cell line, 0% HSA. An outline of the steps: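 Potency (EC50) is the concentration reaching half-maximal activation, with responses scaled so that 1000 nM urocortin 2 equals 100%. Intracellular cAMP was quantified by homogeneous time-resolved fluorescence at 665/620 nm, 1 h after lysis-buffer reagents. Compound stimulation lasted 30 min at room temperature on 2000 IBMX-treated (2 mM) cells per well in HEPES-buffered HBSS.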
On the technique in general: In TR-FRET formats the signal depends on donor and acceptor labels being close together.

Another assay has as its target T2, CRF1R receptor (Homo sapiens, UniProt P34998).
T2 construct: host or cells: CHO-K1 clone 2
T2 sequence (P34998 24-415): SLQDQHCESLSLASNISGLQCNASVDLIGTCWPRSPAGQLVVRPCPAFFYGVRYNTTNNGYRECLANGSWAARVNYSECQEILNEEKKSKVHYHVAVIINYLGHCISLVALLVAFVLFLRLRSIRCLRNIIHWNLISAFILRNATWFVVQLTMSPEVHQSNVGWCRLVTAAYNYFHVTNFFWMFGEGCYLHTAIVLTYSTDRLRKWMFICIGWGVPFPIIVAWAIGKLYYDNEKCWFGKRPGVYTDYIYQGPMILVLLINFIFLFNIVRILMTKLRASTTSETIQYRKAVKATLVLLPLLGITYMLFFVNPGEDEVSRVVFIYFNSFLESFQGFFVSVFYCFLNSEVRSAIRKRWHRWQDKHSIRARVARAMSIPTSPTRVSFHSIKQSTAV
Description: cAMP activity at anti-target CRF1R, CRF1R-overexpression CHO cell line (Example 9). The conditions noted are these: CRF1R-overexpression CHO cell line; for EC50: 0% HSA; for Emax: read-out: Emax (%). The gist of the method:
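Using thawed CRF1R-overexpressing CHO cells at 2000 per well, compound is applied for 30 min at RT in HBSS/HEPES buffer with IBMX. Cellular cAMP content is determined via HTRF, and percent activity is calculated against 1000 nM UCN2 defined as 100%.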

Starred links: 1 amine or outer side, 2 acyl side, 3 side chain; linkers in the order of their positions; H or OH if unused. Non-standard residues stand in square brackets, D forms with d. Residues, ends and D or L forms follow the SMILES beside them. Groups on a side chain read outwards from the residue. *: point of attachment. C18 diacid = O=C(O)CCCCCCCCCCCCCCCCC(=O)*; γGlu = O=C(O)[C@H](CCC(=O)[*:2])N[*:1]; Palmitoyl = CCCCCCCCCCCCCCCC(=O)*; AEEA = NCCOCCOCC(=O)O; Aib = CC(C)(N)C(=O)O A value given as a limit tells only on which side of the number the result lay.

What is called EC50 is the concentration that produces a half-maximal response. The term Emax denotes the greatest response seen or fitted, relative to the assay's reference. Take `CCCCCCCCCCCCCCCC(=O)N[C@@H](CCC(=O)NCCCC[C@H](NC(=O)[C@@H](NC(=O)[C@H](CCCCN)NC(=O)[C@@H](NC(=O)[C@@H]1CCCN1C(=O)[C@@H](NC(=O)[C@H](CC(=O)O)NC(=O)[C@H](CC(C)C)NC(=O)[C@H](CO)NC(=O)[C@H](CC(C)C)NC(=O)[C@@H](NC(=O)[C@@H](N)Cc1ccccc1)[C@@H](C)O)C(C)C)[C@@H](C)O)[C@@H](C)CC)C(=O)N[C@@H](CCC(N)=O)C(=O)N[C@@H](CCCCN)C(=O)N[C@@H](CC(C)C)C(=O)N[C@@H](CC(C)C)C(=O)N[C@@H](CCCCN)C(=O)N[C@@H](CCC(N)=O)C(=O)N[C@@H](CCC(=O)O)C(=O)N[C@@H](CCCCN)C(=O)N[C@@H](CCC(N)=O)C(=O)N[C@@H](CCCCN)C(=O)N[C@@H](CCCCN)C(=O)N[C@@H](CCC(N)=O)C(=O)N[C@@H](CCCNC(=N)N)C(=O)N[C@@H](CCC(N)=O)C(=O)N[C@@H](CCCCN)C(=O)N[C@@H](C)C(=O)N[C@@H](CCCCN)C(=O)N[C@H](C(=O)N[C@@H](C)C(=O)N[C@@H](C)C(=O)N[C@@H](CCC(N)=O)C(=O)N[C@H](C(=O)N[C@@H](CC(C)C)C(=O)N[C@@H](C)C(=O)N[C@@H](CCC(N)=O)C(=O)N[C@H](C(N)=O)C(C)C)[C@@H](C)CC)[C@@H](C)O)C(=O)O` [compound 8] (H-FTLSLDVPTKIK([γGlu-Palmitoyl])QKLLKQEKQKKQRQKAKTAAQILAQV-NH2; N-terminus assumed): the figures for the EC50 at human CRF2α receptor, with rat CRF2R α receptor and at CRF1R receptor were 0.2 nM, 0.11 nM and above 1000 nM, respectively. Besides, the Emax at CRF1R receptor stood at 16%.
For the molecule `CCCCCCCCCCCCCCCC(=O)N[C@@H](CCC(=O)NCCCC[C@H](NC(=O)[C@@H](NC(=O)[C@H](CCCCN)NC(=O)[C@@H](NC(=O)[C@@H]1CCCN1C(=O)[C@@H](NC(=O)[C@H](CC(=O)O)NC(=O)[C@H](CC(C)C)NC(=O)[C@H](CO)NC(=O)[C@H](CC(C)C)NC(=O)[C@@H](NC(=O)[C@@H](N)Cc1ccccc1)[C@@H](C)O)C(C)C)[C@@H](C)O)[C@@H](C)CC)C(=O)N[C@@H](CCC(N)=O)C(=O)N[C@@H](CCCCN)C(=O)N[C@@H](CC(C)C)C(=O)N[C@@H](CC(C)C)C(=O)N[C@@H](CCCCN)C(=O)N[C@@H](CCC(N)=O)C(=O)N[C@@H](CCC(=O)O)C(=O)N[C@@H](CCCCN)C(=O)N[C@@H](CCC(N)=O)C(=O)N[C@@H](CCCCN)C(=O)N[C@@H](CCCCN)C(=O)N[C@@H](CCC(N)=O)C(=O)N[C@@H](CCCNC(=N)N)C(=O)N[C@@H](CCC(N)=O)C(=O)N[C@@H](CCCCN)C(=O)N[C@@H](C)C(=O)N[C@@H](CCCCN)C(=O)N[C@H](C(=O)N[C@@H](CC(N)=O)C(=O)N[C@@H](C)C(=O)N[C@@H](CCC(N)=O)C(=O)N[C@H](C(=O)N[C@@H](CC(C)C)C(=O)N[C@@H](C)C(=O)N[C@@H](CCC(N)=O)C(=O)N[C@H](C(N)=O)C(C)C)[C@@H](C)CC)[C@@H](C)O)C(=O)O` [compound 11] (H-FTLSLDVPTKIK([γGlu-Palmitoyl])QKLLKQEKQKKQRQKAKTNAQILAQV-NH2), the concentration for a half-maximal effect (EC50) is 0.02 nM at human CRF2α receptor, 0.01 nM with rat CRF2R α receptor and above 1000 nM at CRF1R receptor. In addition, the Emax at CRF1R receptor is 12.7%.
`CC[C@H](C)[C@H](NC(C)=O)C(=O)N[C@H](C(=O)N[C@@H](CC(C)C)C(=O)N[C@@H](CO)C(=O)N[C@@H](CC(C)C)C(=O)N[C@@H](CC(=O)O)C(=O)N[C@@H](C(=O)N1CCC[C@H]1C(=O)N[C@H](C(=O)N[C@@H](CCCCN)C(=O)N[C@@H](CC(C)C)C(=O)N[C@@H](CCCCNC(=O)COCCOCCNC(=O)COCCOCCNC(=O)CC[C@H](NC(=O)CCCCCCCCCCCCCCCCC(=O)O)C(=O)O)C(=O)N[C@@H](CCC(N)=O)C(=O)N[C@H](C(=O)N[C@@H](CC(C)C)C(=O)N[C@@H](CC(C)C)C(=O)N[C@@H](CCC(=O)O)C(=O)N[C@@H](CCC(N)=O)C(=O)N[C@@H](C)C(=O)N[C@@H](CCCNC(=N)N)C(=O)N[C@@H](CCC(N)=O)C(=O)N[C@@H](CCCCN)C(=O)NC(C)(C)C(=O)N[C@@H](CCC(N)=O)C(=O)N[C@@H](CCCNC(=N)N)C(=O)N[C@@H](CCC(=O)O)C(=O)N[C@@H](CCC(N)=O)C(=O)N[C@@H](C)C(=O)N[C@@H](CCC(=O)O)C(=O)N[C@@H](CCCCN)C(=O)N[C@@H](CC(N)=O)C(=O)N[C@@H](CCC(=O)O)C(=O)N[C@@H](CCC(N)=O)C(=O)N[C@H](C(=O)N[C@@H](CC(C)C)C(=O)N[C@@H](CCC(=O)O)C(=O)N[C@@H](CCC(N)=O)C(=O)N[C@H](C(N)=O)C(C)C)[C@@H](C)CC)[C@@H](C)CC)[C@@H](C)CC)C(C)C)C(C)C` [compound 165] (Ac-IVLSLD[dV]PIKLK([AEEA-AEEA-γGlu-C18 diacid])QILLEQARQK[Aib]QREQAEKNEQILEQV-NH2) gave an EC50 with rat CRF2R α receptor of 2.41 nM. Moreover, the Emax at CRF1R receptor turned out to be 26.9%.
The molecule `CC[C@H](C)[C@H](NC(C)=O)C(=O)N[C@H](C(=O)N[C@@H](CC(C)C)C(=O)N[C@@H](CO)C(=O)N[C@@H](CC(C)C)C(=O)N[C@@H](CC(=O)O)C(=O)N[C@@H](C(=O)N1CCC[C@H]1C(=O)N[C@H](C(=O)N[C@@H](CCCCN)C(=O)N[C@@H](CC(C)C)C(=O)N[C@@H](CCCCNC(=O)COCCOCCNC(=O)COCCOCCNC(=O)CC[C@H](NC(=O)CCCCCCCCCCCCCCCCC(=O)O)C(=O)O)C(=O)N[C@@H](CCC(N)=O)C(=O)N[C@H](C(=O)N[C@@H](CC(C)C)C(=O)N[C@@H](CC(C)C)C(=O)N[C@@H](CCC(=O)O)C(=O)N[C@@H](CCC(N)=O)C(=O)N[C@@H](CCC(=O)O)C(=O)N[C@@H](CCCNC(=N)N)C(=O)N[C@@H](CCC(N)=O)C(=O)N[C@@H](CCCCN)C(=O)NC(C)(C)C(=O)N[C@@H](CCC(N)=O)C(=O)N[C@@H](CCCNC(=N)N)C(=O)N[C@@H](CCC(=O)O)C(=O)N[C@@H](CCC(N)=O)C(=O)N[C@@H](C)C(=O)N[C@@H](CCC(=O)O)C(=O)N[C@@H](CCCCN)C(=O)N[C@@H](CC(N)=O)C(=O)N[C@@H](CCC(=O)O)C(=O)N[C@@H](CCC(N)=O)C(=O)N[C@H](C(=O)N[C@@H](CC(C)C)C(=O)N[C@@H](CCC(=O)O)C(=O)N[C@@H](CCC(N)=O)C(=O)N[C@H](C(N)=O)C(C)C)[C@@H](C)CC)[C@@H](C)CC)[C@@H](C)CC)C(C)C)C(C)C` [compound 166] (Ac-IVLSLD[dV]PIKLK([AEEA-AEEA-γGlu-C18 diacid])QILLEQERQK[Aib]QREQAEKNEQILEQV-NH2) returned an EC50 in the assay on rat CRF2R α receptor of 9.99 nM. The Emax on CRF1R receptor was 5.94%.
On the same counts, the results for `CC[C@H](C)[C@H](NC(C)=O)C(=O)N[C@H](C(=O)N[C@@H](CC(C)C)C(=O)N[C@@H](CO)C(=O)N[C@@H](CC(C)C)C(=O)N[C@@H](CC(=O)O)C(=O)N[C@@H](C(=O)N1CCC[C@H]1C(=O)N[C@H](C(=O)NCC(=O)N[C@@H](CC(C)C)C(=O)N[C@@H](CCCCNC(=O)COCCOCCNC(=O)COCCOCCNC(=O)CC[C@H](NC(=O)CCCCCCCCCCCCCCCCC(=O)O)C(=O)O)C(=O)N[C@@H](CCC(N)=O)C(=O)N[C@H](C(=O)N[C@@H](CC(C)C)C(=O)N[C@@H](CC(C)C)C(=O)N[C@@H](CCC(=O)O)C(=O)N[C@@H](CCC(N)=O)C(=O)N[C@@H](CCC(=O)O)C(=O)N[C@@H](CCCNC(=N)N)C(=O)N[C@@H](CCC(N)=O)C(=O)N[C@@H](CCCCN)C(=O)NC(C)(C)C(=O)N[C@@H](CCC(N)=O)C(=O)N[C@@H](CCCNC(=N)N)C(=O)N[C@@H](CCC(=O)O)C(=O)N[C@@H](CCC(N)=O)C(=O)N[C@@H](C)C(=O)N[C@@H](CCC(=O)O)C(=O)N[C@@H](CCCCN)C(=O)N[C@@H](CC(N)=O)C(=O)N[C@@H](CCC(=O)O)C(=O)N[C@@H](CCC(N)=O)C(=O)N[C@H](C(=O)N[C@@H](CC(C)C)C(=O)N[C@@H](CCC(=O)O)C(=O)N[C@@H](CCC(N)=O)C(=O)N[C@H](C(N)=O)C(C)C)[C@@H](C)CC)[C@@H](C)CC)[C@@H](C)CC)C(C)C)C(C)C` [compound 167] (Ac-IVLSLD[dV]PIGLK([AEEA-AEEA-γGlu-C18 diacid])QILLEQERQK[Aib]QREQAEKNEQILEQV-NH2) are 76.9 nM and -0.46%.
